In ChEMBL document CHEMBL1201862, “PubChem BioAssay data set” (2004):
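Results reflect a 48-hour exposure of cells in 96-well plates to compound at five concentrations. GI50 = concentration required for 50% inhibition of growth.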 Calls of active or inactive are those of the source. Cut-off read from the data, not from the text of the source: active = GI50 up to about 1.1 µM and inactive = higher.

How the values were obtained:
Assay in all cases: NCI anticancer screen, dose series, 48 h
[1] = tested on: HOP-62
[2] = tested on: DU-145
[3] = tested on: UACC-257
[4] = tested on: RXF 393
[5] = tested on: A549
[6] = tested on: PC-3
[7] = tested on: Malme-3M
[8] = tested on: K562
[9] = tested on: KM12
[10] = tested on: HT-29
[11] = tested on: SK-MEL-2
[12] = tested on: ACHN
[13] = tested on: NCI-H226
[14] = tested on: NCI-H23
[15] = tested on: T47D
[16] = tested on: SR
[17] = tested on: OVCAR-5
[18] = tested on: A498
[19] = tested on: SF-295
[20] = tested on: UO-31

Measured: GI50

CC(C)NC(=O)OCc1c(COC(=O)NC(C)C)c(-c2ccc[n+](COC(=O)C3CCCCC3)c2)n2c1CCC2
inactive: [1] 37.7 µM | [2] 28.4 µM | [3] > 100 µM | [4] 38.9 µM | [5] 82 µM | [6] 48.6 µM | [7] 62.5 µM | [8] > 100 µM | [9] > 100 µM | [10] 90.6 µM | [11] 44.6 µM | [12] 27.3 µM | [13] > 100 µM | [14] 28.6 µM | [15] 57.8 µM | [16] > 100 µM | [17] 78.3 µM | [18] 29.2 µM | [19] 47.8 µM | [20] 40.6 µM
